Experimental data published in the supplement of paper PMC10307832.

How the values were obtained:
Test in all cases: relative viability (nuclei count vs DMSO), 5 days (fraction); higher = more cells survive
[1] = compound: CN(c1ncccc1CNc1nc(Nc2ccc3c(c2)CC(=O)N3)ncc1C(F)(F)F)S(C)(=O)=O + N=C(N)NC(=N)NCCc1ccccc1 [Phenformin] (partner 250 µM)
In short: (§1)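 Values are medians from duplicate plates. Each reflects relative viability, defined as the nuclei count of treated wells over that of vehicle wells. Lung cancer cell lines in 1536-well plates were pin-tool dosed one day after seeding with one drug alone or with a fixed anchor-drug dose plus five library-drug doses (not always all listed) in √10 steps, then fixed, stained and imaged at 4× after 5 days.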

[2] = compound: CN(c1ncccc1CNc1nc(Nc2ccc3c(c2)CC(=O)N3)ncc1C(F)(F)F)S(C)(=O)=O + CS(=O)(=O)N1CCN(Cc2cc3nc(-c4cccc5[nH]ncc45)nc(N4CCOCC4)c3s2)CC1 [Pictilisib] (partner 1 µM)
In short: as §1

[3] = compound: CN(c1ncccc1CNc1nc(Nc2ccc3c(c2)CC(=O)N3)ncc1C(F)(F)F)S(C)(=O)=O + CC(=O)c1c(C)c2cnc(Nc3ccc(N4CCNCC4)cn3)nc2n(C2CCCC2)c1=O [Palbociclib] (partner 0.5 µM)
In short: as §1

[4] = compound: CN(c1ncccc1CNc1nc(Nc2ccc3c(c2)CC(=O)N3)ncc1C(F)(F)F)S(C)(=O)=O + Nc1ncn([C@H]2C[C@H](O)[C@@H](CO)O2)c(=O)n1 [Decitabine] (partner 2 µM)
In short: as §1

Row | Cell Line | relative viability ([1]; first compound 0.01 µM) | relative viability ([1]; first compound 0.03162 µM) | relative viability ([1]; first compound 0.1 µM) | relative viability ([1]; first compound 0.3162 µM) | relative viability ([1]; first compound 1 µM) | relative viability ([2]; first compound 0.01 µM) | relative viability ([2]; first compound 0.03162 µM) | relative viability ([2]; first compound 0.1 µM) | relative viability ([2]; first compound 0.3162 µM) | relative viability ([2]; first compound 1 µM) | relative viability ([3]; first compound 0.01 µM) | relative viability ([3]; first compound 0.03162 µM) | relative viability ([3]; first compound 0.1 µM) | relative viability ([3]; first compound 0.3162 µM) | relative viability ([3]; first compound 1 µM) | relative viability ([4]; first compound 0.01 µM) | relative viability ([4]; first compound 0.03162 µM) | relative viability ([4]; first compound 0.1 µM) | relative viability ([4]; first compound 0.3162 µM) | relative viability ([4]; first compound 1 µM)
1 | LCLC-103H | 0.337 | 0.298 | 0.277 | 0.348 | 0.318 | 0.558 | 0.561 | 0.6 | 0.536 | 0.577 | 0.499 | 0.428 | 0.5 | 0.471 | 0.484 | 0.68 | 0.673 | 0.697 | 0.672 | 0.684
2 | NCI-H441 | 0.926 | 0.859 | 0.805 | 0.864 | 0.787 | 0.554 | 0.516 | 0.527 | 0.527 | 0.508 | 0.23 | 0.239 | 0.181 | 0.176 | 0.16 | 0.3 | 0.25 | 0.264 | 0.261 | 0.224
3 | SK-LU-1 | 0.579 | 0.597 | 0.453 | 0.472 | 0.371 | 0.519 | 0.53 | 0.473 | 0.554 | 0.423 | 0.405 | 0.358 | 0.398 | 0.401 | 0.369 | 0.641 | 0.689 | 0.636 | 0.639 | 0.576
4 | BEN | 0.253 | 0.281 | 0.268 | 0.336 | 0.246 | 0.595 | 0.585 | 0.512 | 0.594 | 0.703 | 0.461 | 0.472 | 0.48 | 0.499 | 0.434 | 0.739 | 0.739 | 0.715 | 0.763 | 0.671
5 | LC-2-ad | 0.52 | 0.544 | 0.548 | 0.567 | 0.524 | 0.567 | 0.552 | 0.647 | 0.928 | 0.66 | 0.523 | 0.451 | 0.522 | 0.473 | 0.463 | 0.789 | 0.833 | 0.828 | 0.852 | 0.863
6 | COR-L23 | 0.464 | 0.54 | 0.416 | 0.424 | 0.332 | 0.793 | 0.824 | 0.922 | 0.874 | 0.585 | 0.265 | 0.262 | 0.308 | 0.239 | 0.234 | 0.417 | 0.493 | 0.44 | 0.503 | 0.399
7 | NCI-H1650 | 0.481 | 0.53 | 0.519 | 0.436 | 0.409 | 0.557 | 0.676 | 0.609 | – | 0.581 | 0.291 | 0.31 | 0.367 | 0.321 | 0.304 | 0.502 | 0.474 | 0.513 | 0.426 | 0.47
8 | RERF-LC-KJ | 0.409 | 0.458 | 0.419 | 0.463 | 0.412 | 0.494 | 0.577 | 0.551 | 0.548 | 0.622 | 1.17 | 1.15 | 1.09 | 1.03 | 1.02 | 0.651 | 0.71 | 0.645 | 0.793 | 0.764
9 | NCI-H1915 | 0.386 | 0.379 | 0.365 | 0.368 | 0.36 | 1.01 | 0.826 | 0.905 | 1.01 | 0.939 | 0.498 | 0.532 | 0.58 | 0.525 | 0.509 | 0.278 | 0.258 | 0.264 | 0.247 | 0.256
10 | NCI-H2009 | 0.525 | 0.483 | 0.502 | 0.413 | 0.504 | 0.793 | 0.91 | 0.745 | 0.95 | 0.958 | 0.207 | 0.179 | 0.251 | 0.202 | 0.191 | 0.425 | 0.362 | 0.372 | 0.4 | 0.448
11 | NCI-H2126 | 0.515 | 0.514 | 0.456 | 0.527 | 0.491 | 0.495 | 0.469 | 0.452 | 0.533 | 0.459 | 0.358 | 0.351 | 0.308 | 0.352 | 0.306 | 0.623 | 0.615 | 0.564 | 0.557 | 0.53
12 | LXF-289 | 0.542 | 0.55 | 0.538 | 0.521 | 0.525 | 0.834 | 0.937 | 0.75 | 0.677 | 0.737 | 0.63 | 0.592 | 0.567 | 0.639 | 0.582 | 0.374 | 0.427 | 0.419 | 0.412 | 0.447
13 | HCC-44 | 0.193 | 0.171 | 0.297 | 0.239 | 0.316 | 0.478 | 0.623 | 0.617 | 0.678 | 0.658 | 0.83 | 0.953 | 0.943 | 0.907 | 0.867 | 0.871 | 0.956 | 0.898 | 0.977 | 0.996
14 | PC-14 | 0.726 | 0.59 | 0.563 | 0.565 | 0.715 | 0.829 | 0.872 | 0.716 | 0.66 | 0.533 | 0.543 | 0.635 | 0.526 | 0.515 | 0.364 | 0.197 | 0.225 | 0.254 | 0.245 | 0.269
15 | HOP-62 | 0.776 | 0.681 | 0.628 | 0.675 | 0.558 | 0.784 | 0.899 | 0.793 | 0.853 | 0.643 | 0.469 | 0.444 | 0.374 | 0.412 | 0.39 | 0.208 | 0.212 | 0.256 | 0.211 | 0.245
16 | NCI-H358 | 0.336 | 0.338 | 0.317 | 0.317 | 0.202 | 0.276 | 0.351 | 0.275 | 0.347 | 0.243 | 0.135 | 0.113 | 0.145 | 0.119 | 0.0943 | 0.195 | 0.221 | 0.251 | 0.221 | 0.183
